Reference: patent US9040528B2, “Chemical compounds 542” (AstraZeneca AB, priority 2008, dated 2015)

Biological target: Escherichia coli DNA gyrase A/B tetramer (Escherichia coli (strain K12), UniProt P0AES4+P0AES6)
Experiment: DNA gyrase supercoiling activity fluorescence polarisation assay
Type: biochemical
Conditions: 5 nM enzyme, relaxed plasmid, 0.3 mM ATP, ambient temperature; read-out: E. coli DNA gyrase supercoiling IC50
Outline: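 Supercoiling reactions quenched with 40 nM 5′-BODIPY-FL triplex-forming oligonucleotide probe in pH 3.5 NaCl/sodium acetate buffer; after 60 min, fluorescence anisotropy read (ex 485/em 535 nm). IC50 by nonlinear regression, normalised to 0.8% DMSO (100% activity) and 5 μM ciprofloxacin (0% activity).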

SMILES | IC50
C[C@@H]1CN2c3c(cc4c(C(=O)N5CC(F)(F)C5)noc4c3F)CC3(C(=O)NC(=O)NC3=O)[C@H]2[C@H](C)O1 [Example 95(a), (2R,4S,4aS)-8-(3,3-difluoroazetidine-1-carbonyl)-11-fluoro-2,4-dimethyl-2,4,4a,6-tetrahydro-1H,1′H-spiro[isoxazolo[4,5-g][1,4]oxazino[4,3-a]quinoline-5,5′-pyrimidine]-2′,4′,6′(3′H)-trione] | 1000 nM
C[C@@H]1CN2c3c(cc4c(-n5cc(C(=O)O)cn5)noc4c3F)CC3(C(=O)NC(=O)NC3=O)[C@H]2[C@H](C)O1 (relative stereo) [Example 186, 1-[(2R,4S,4aS)-rel-11-fluoro-2,4-dimethyl-2′,4′,6′-trioxo-1,1′,2,3′,4,4′,4a,6′-octahydro-2′H,6H-spiro[1,4-oxazino[4,3-a][1,2]oxazolo[4,5-g]quinoline-5,5′-pyrimidin]-8-yl]-1H-pyrazole-4-carboxylic acid] | 7600 nM
CCOC(=O)c1noc2c(F)c3c(cc12)CC1(C(=O)NC(=O)NC1=O)[C@H]1[C@H](C)O[C@H](C)CN31 (relative stereo) [Example 134, (2R,4S,4aS)-rel-ethyl 11-fluoro-2,4-dimethyl-2′,4′,6′-trioxo-2,2′,3′,4,4a,4′,6,6′-octahydro-1H,1′H-spiro[isoxazolo[4,5-g][1,4]oxazino[4,3-a]quinoline-5,5′-pyrimidine]-8-carboxylate] | 1000 nM
C[C@@H]1CN2c3c(nc4c(C(=O)NCc5cccc(C#N)c5)noc4c3Cl)CC3(C(=O)NC(=O)NC3=O)[C@H]2[C@H](C)O1 (relative stereo) [Example 133, (2R,4S,4aS)-rel-11-chloro-N-(3-cyanobenzyl)-2,4-dimethyl-2′,4′,6′-trioxo-2,2′,3′,4,4a,4′,6,6′-octahydro-1H,1′H-spiro[isoxazolo[4,5-g][1,4]oxazino[4,3-a][1,5]naphthyridine-5,5′-pyrimidine]-8-carboxamide] | 13000 nM
C[C@@H]1CN2c3c(cc4c(-n5cc(C(=O)N(C)C)cn5)noc4c3F)CC3(C(=O)NC(=O)NC3=O)[C@H]2[C@H](C)O1 (relative stereo) [Example 187, 1-[(2R,4S,4aS)-rel-11-fluoro-2,4-dimethyl-2′,4′,6′-trioxo-1,1′,2,3′,4,4′,4a,6′-octahydro-2′H,6H-spiro[1,4-oxazino[4,3-a][1,2]oxazolo[4,5-g]quinoline-5,5′-pyrimidin]-8-yl]-N,N-dimethyl-1H-pyrazole-4-carboxamide] | 3300 nM
CC1O[C@H](C)CN2c3c(cc4c(-c5cnccn5)noc4c3F)CC3(C(=O)NC(=O)NC3=O)[C@H]12 (stereo in doubt) [Example 165(a), (2R,4S,4aR)-11-fluoro-2,4-dimethyl-8-(pyrazin-2-yl)-2,4,4a,6-tetrahydro-1H,1′H-spiro[isoxazolo[4,5-g][1,4]oxazino[4,3-a]quinoline-5,5′-pyrimidine]-2′,4′,6′(3′H)-trione] | 7800 nM
C[C@@H]1CN2c3c(nc4c(-c5sc(Cl)nc5Cl)noc4c3Cl)CC3(C(=O)NC(=O)NC3=O)[C@H]2[C@H](C)O1 (relative stereo) [Example 116, (2R,4S,4aS)-rel-11-chloro-2,4-dimethyl-8-(2,4-dichlorothiazol-5-yl)-2,4,4a,6-tetrahydro-1H,1′H-spiro[isoxazolo[4,5-g][1,4]oxazino[4,3-a][1,5]naphthyridine-5,5′-pyrimidine]-2′,4′,6′(3′H)-trione] | 2000 nM
Cc1noc2c(F)c3c(cc12)CC1(C(=O)NC(=O)NC1=O)[C@H]1[C@H](C)O[C@H](C(F)(F)F)CN31 (relative stereo) [Example 149, (2S,4S,4aS)-rel-11-fluoro-4,8-dimethyl-2-(trifluoromethyl)-1,2,4,4a-tetrahydro-2′H,6H-spiro[isoxazolo[4,5-g][1,4]oxazino[4,3-a]quinoline-5,5′-pyrimidine]-2′,4′,6′(1′H,3′H)-trione] | 4400 nM
C[C@@H]1CN2c3c(cc4c(-n5cnc(C(F)(F)F)c5)noc4c3F)CC3(C(=O)NC(=O)NC3=O)[C@H]2[C@H](C)O1 (relative stereo) [Example 59, (2R,4S,4aS)-rel-11-fluoro-2,4-dimethyl-8-[4-(trifluoromethyl)-1H-imidazol-1-yl]-1,2,4,4a-tetrahydro-2′H,6H-spiro[1,4-oxazino[4,3-a][1,2]oxazolo[4,5-g]quinoline-5,5′-pyrimidine]-2′,4′,6′(1′H,3′H)-trione] | 6600 nM
Cc1cc(C)n(-c2noc3c(F)c4c(cc23)CC2(C(=O)NC(=O)NC2=O)[C@H]2[C@H](C)O[C@H](C)CN42)n1 (relative stereo) [Example 63, (2R,4S,4aS)-rel-8-(3,5-dimethyl-1H-pyrazol-1-yl)-11-fluoro-2,4-dimethyl-1,2,4,4a-tetrahydro-2′H,6H-spiro[1,4-oxazino[4,3-a][1,2]oxazolo[4,5-g]quinoline-5,5′-pyrimidine]-2′,4′,6′(1′H,3′H)-trione] | 2700 nM
C[C@@H]1CN2c3c(cc4c(C(=O)NCC5CC5)noc4c3F)CC3(C(=O)NC(=O)NC3=O)[C@H]2[C@H](C)O1 (relative stereo) [Example 152, (2R,4S,4aS)-rel-N-(cyclopropylmethyl)-11-fluoro-2,4-dimethyl-2′,4′,6′-trioxo-2,2′,3′,4,4a,4′,6,6′-octahydro-1H,1′H-spiro[isoxazolo[4,5-g][1,4]oxazino[4,3-a]quinoline-5,5′-pyrimidine]-8-carboxamide] | 2100 nM
C[C@@H]1CN2c3c(cc4c(-c5ccnc(N)n5)noc4c3F)CC3(C(=O)NC(=O)NC3=O)[C@H]2[C@H](C)O1 [Example 174, (2R,4S,4aS)-8-(2-aminopyrimidin-4-yl)-11-fluoro-2,4-dimethyl-2,4,4a,6-tetrahydro-1H,1′H-spiro[isoxazolo[4,5-g][1,4]oxazino[4,3-a]quinoline-5,5′-pyrimidine]-2′,4′,6′(3′H)-trione] | 500 nM
C[C@@H]1CN2c3c(cc4c(-c5ncccn5)noc4c3F)CC3(C(=O)NC(=O)NC3=O)[C@H]2[C@H](C)O1 [Example 148(b), (2R,4S,4aS)-11-fluoro-2,4-dimethyl-8-(pyrimidin-2-yl)-2,4,4a,6-tetrahydro-1H,1′H-spiro[isoxazolo[4,5-g][1,4]oxazino[4,3-a]quinoline-5,5′-pyrimidine]-2′,4′,6′(3′H)-trione] | 400 nM
C[C@@H]1CN2c3c(cc4c(S(C)(=O)=O)noc4c3F)CC3(C(=O)NC(=O)NC3=O)[C@H]2[C@H](C)O1 (relative stereo) [Example 182, (2R,4S,4aS)-rel-11-fluoro-2,4-dimethyl-8-(methylsulfonyl)-1,2,4,4a-tetrahydro-2′H,6H-spiro[1,4-oxazino[4,3-a][1,2]oxazolo[4,5-g]quinoline-5,5′-pyrimidine]-2′,4′,6′(1′H,3′H)-trione] | 2400 nM
C[C@@H]1CN2c3c(cc4c(C(=O)NCc5ccnn5C)noc4c3F)CC3(C(=O)NC(=O)NC3=O)[C@H]2[C@H](C)O1 (racemic) [Example 162, (2R,4 S,4 aS)-rel-11-fluoro-2,4-dimethyl-N-((1-methyl-1H-pyrazol-5-yl)methyl)-2′,4′,6′-trioxo-2,2′,3′,4,4a,4′,6,6′-octahydro-1H,1′H-spiro[isoxazolo[4,5-g][1,4]oxazino[4,3-a]quinoline-5,5′-pyrimidine]-8-carboxamide] | 2100 nM
